# Measurements: article PMC6689975, “Novel Cell Wall Antifungals Reveal a Special Synergistic Activity in pbr1 Mutants Resistant to the Glucan Synthesis Antifungals Papulacandins and Echinocandins” (Frontiers in Microbiology, 2019)
# Where two headings read alike, the source gives them in different places.
# Tests used:
# Experiment in all cases: microbe, parasite or virus in culture
# [1] = system: T1, S. cerevisiae wild-type CVX12-3A; set-up: species or system whole yeast cells; micro-culture broth dilution MIC in YES at 30 C, turbidity, complete growth inhibition; details: Saccharomyces cerevisiae
# T1 construct: CVX12-3A
# Protocol: (§1) Standard YEPD (Yeast Extract, Peptone, Dextrose) ([Sherman, 1990]), YEPD+S (YEPD with 1.2M sorbitol), YES (Yeast Extract, Dextrose and Supplements of Adenine, Histidine, Leucine, Uracil and Lysine) ([Alfa et al., 1993]) and YES+S (YES with 1.2 M sorbitol) ([Ribas et al., 1991]; [Ishiguro et al., 1997]), media were used for determination of MIC values of the tested compounds. A stock solution of 10 mg/ml of each tested compounds was prepared in DMSO and serial dilutions in DMSO were prepared. The final concentration of DMSO was 2% in the YEPD medium. […] The serial dilutions of compounds were dispensed into test tubes with 1 ml of YEPD or YEPD+S to make final concentrations of 200, 100, 50, 25, 12.5, 6.26, 3.125, 1.6, 0.8 and 0.4 μg/ml. The tested yeast strains were previously grown in YEPD, YEPD+S, YES or YES+S agar plates at 30°C for 48 h. Micro-culture assays of large numbers of samples were analyzed as described) ([Martins et al., 2011]). Essentially early log-phase cells were grown in YEPD, YEPD+S, YES or YES+S (1.2 M sorbitol) medium at 30°C, and diluted to cell density of 4 X 10^6 cells/ml in YEPD, YEPD+S, YES or YES+S medium and aliquots of 100 μl were dispensed into each small test tube (3 ml test tube size). Then, another 100 μl of YEPD, YEPD+S, YES or YES+S with the corresponding dilution of each compound at 2X concentration (4% DMSO) was added. The final volume was 200 μl, with the cells diluted to of 2 X 10^6 cells/ml and each compound diluted to 1X final concentration, containing increasing concentrations of antifungal (0, 1, 2, 5, 10, 20, 50, 100 and 200 μg/ml) or an equivalent volume of solvent (2% DMSO). The cells were grown at 30°C in an orbital roller and turbidity was analyzed after 24 and 48 h of incubation. The MIC was determined as the minimal concentration of tested compound that produced complete cell growth inhibition and kept the medium clear. The MIC values were calculated from at least three independent experiments. Next, the first generation of isochromanones (1E-16E) was also screened in YES medium (Table 5) and exerted a weaker antifungal potency than in YEPD medium and also than the second family of isochromanones in YES medium (17E-30E) (Table 6). The strains are partly different from the previously mentioned ones (Tables 5, 6) analyzing two wild type C. albicans strains because they behaved similarly in YEPD. It is remarkable that there was no effect against either the C. albicans, the S. cerevisiae, or the S. pombe wild-type strains, except with 30E.
# [2] = system: T2, S. pombe wild-type 972 h-; set-up: species or system whole yeast cells; micro-culture broth dilution MIC in YES at 30 C, turbidity, complete growth inhibition; details: Schizosaccharomyces pombe
# T2 construct: 972 h-
# Protocol: as §1
# C. albicans wild-type [3] = system: C. albicans wild-type; set-up: species or system whole yeast cells; micro-culture broth dilution MIC in YES at 30 C, turbidity, complete growth inhibition; details: Candida albicans
# Protocol: as §1
# [4] = system: T3, Schizosaccharomyces pombe S. p.^a (wild-type 972 h-); set-up: species or system yeast; micro tube dilution MIC in YES (± 1.2 M sorbitol), complete growth inhibition by turbidity; details: 48 h, YES + 1.2 M sorbitol
# T3 construct: 972 h-
# Protocol: as §1, with “experiments.” for “experiments. Next, the first generation of isochromanones (1E-16E) was also screened in YES medium (Table 5) and exerted a weaker antifungal potency than in YEPD medium and also than the second family of isochromanones in YES medium (17E-30E) (Table 6). The strains are partly different from the previously mentioned ones (Tables 5, 6) analyzing two wild type C. albicans strains because they behaved similarly in YEPD. It is remarkable that there was no effect against either the C. albicans, the S. cerevisiae, or the S. pombe wild-type strains, except with 30E.”
# [5] = system: T4, Saccharomyces cerevisiae S. c.^d (wild-type CVX12-3A); set-up: species or system yeast; micro tube dilution MIC in YES (± 1.2 M sorbitol), complete growth inhibition by turbidity; details: 48 h, YES + 1.2 M sorbitol
# T4 construct: CVX12-3A
# Protocol: as §1, with “experiments.” for “experiments. Next, the first generation of isochromanones (1E-16E) was also screened in YES medium (Table 5) and exerted a weaker antifungal potency than in YEPD medium and also than the second family of isochromanones in YES medium (17E-30E) (Table 6). The strains are partly different from the previously mentioned ones (Tables 5, 6) analyzing two wild type C. albicans strains because they behaved similarly in YEPD. It is remarkable that there was no effect against either the C. albicans, the S. cerevisiae, or the S. pombe wild-type strains, except with 30E.”
# [6] = system: Candida albicans C. a.^g (Table 6); set-up: species or system yeast; micro tube dilution MIC in YES (± 1.2 M sorbitol), complete growth inhibition by turbidity; details: 48 h, YES + 1.2 M sorbitol
# Protocol: as §1, with “experiments.” for “experiments. Next, the first generation of isochromanones (1E-16E) was also screened in YES medium (Table 5) and exerted a weaker antifungal potency than in YEPD medium and also than the second family of isochromanones in YES medium (17E-30E) (Table 6). The strains are partly different from the previously mentioned ones (Tables 5, 6) analyzing two wild type C. albicans strains because they behaved similarly in YEPD. It is remarkable that there was no effect against either the C. albicans, the S. cerevisiae, or the S. pombe wild-type strains, except with 30E.”
# [7] = system: Candida albicans C. a.^f (Tables 5, 6); set-up: species or system yeast; micro tube dilution MIC in YES (± 1.2 M sorbitol), complete growth inhibition by turbidity; details: 48 h, YES + 1.2 M sorbitol
# Protocol: as §1, with “experiments.” for “experiments. Next, the first generation of isochromanones (1E-16E) was also screened in YES medium (Table 5) and exerted a weaker antifungal potency than in YEPD medium and also than the second family of isochromanones in YES medium (17E-30E) (Table 6). The strains are partly different from the previously mentioned ones (Tables 5, 6) analyzing two wild type C. albicans strains because they behaved similarly in YEPD. It is remarkable that there was no effect against either the C. albicans, the S. cerevisiae, or the S. pombe wild-type strains, except with 30E.”
# C. albicans wild-type [8] = system: C. albicans wild-type; set-up: species or system whole yeast cells; macro tube broth dilution MIC in YEPD at 30 C, visual clearness of medium; details: Candida albicans, 48 h, read-out: MIC
# Protocol: (§2) Standard YEPD (Yeast Extract, Peptone, Dextrose) ([Sherman, 1990]), YEPD+S (YEPD with 1.2M sorbitol), YES (Yeast Extract, Dextrose and Supplements of Adenine, Histidine, Leucine, Uracil and Lysine) ([Alfa et al., 1993]) and YES+S (YES with 1.2 M sorbitol) ([Ribas et al., 1991]; [Ishiguro et al., 1997]), media were used for determination of MIC values of the tested compounds. A stock solution of 10 mg/ml of each tested compounds was prepared in DMSO and serial dilutions in DMSO were prepared. The final concentration of DMSO was 2% in the YEPD medium. […] The serial dilutions of compounds were dispensed into test tubes with 1 ml of YEPD or YEPD+S to make final concentrations of 200, 100, 50, 25, 12.5, 6.26, 3.125, 1.6, 0.8 and 0.4 μg/ml. The tested yeast strains were previously grown in YEPD, YEPD+S, YES or YES+S agar plates at 30°C for 48 h. For inoculation of YEPD or YEPD+S macro test tubes a suspension of tested fungus was produced with 10^5 cfu/ml (cfu - colony forming unit). 10 μl of suspension was used for inoculation of each tube. After 48 h incubation at 30°C the tubes were checked. The MIC value is the lowest concentration of the tested compound that could inhibit the fungal growth and the medium remained clear. From each tube 10 μl culture was plated on YEPD agar medium to check the contamination. The MIC tests were carried out in three parallels. The screening of the first generation of isochromanones was carried out in YEPD and YEPD+S media (1E-16E). The fungal strains analyzed are: C. albicans wild-type ATCC 26555, SC5314 and ATCC 90028, S. cerevisiae wild-type CVX12-3A and pbr1-1 mutant, and S. pombe wild-type (972h^–), pbr1-8 mutant and pbr1-6 mutant. The bold numbers in Tables 4–6 indicate the more efficient compounds. […] The weak or moderate efficacy against the C. albicans wild-type strains was observed by some substances (3E, 4Z, 5Z, 10E, 15, and 16E). The efficiency toward the S. pombe pbr1-6 mutant strain was the highest inhibitory activity, except 7E, 11E, 12 and 14E. […] As regards the other S. pombe pbr1-8 mutant strain, the antifungal activity of the tested compounds was slightly lower, but the substances with the best activity are partly identical to the best compounds mentioned with pbr1-6, (i.e., 1E, 3E, 4Z, 5Z).
# [9] = system: T1, S. cerevisiae wild-type CVX12-3A; set-up: species or system whole yeast cells; macro tube broth dilution MIC in YEPD at 30 C, visual clearness of medium; details: Saccharomyces cerevisiae, 48 h, read-out: MIC
# Protocol: as §2
# [10] = system: T2, S. pombe wild-type 972 h-; set-up: species or system whole yeast cells; macro tube broth dilution MIC in YEPD at 30 C, visual clearness of medium; details: Schizosaccharomyces pombe, 48 h, read-out: MIC
# Protocol: as §2
# C. albicans wild-type [11] = system: C. albicans wild-type; set-up: species or system whole yeast cells; macro tube broth dilution MIC in YEPD at 30 C, visual clearness of medium; details: Candida albicans, 48 h, read-out: MIC; remark: listed apart in the source
# Protocol: as §2
# C. albicans wild-type [12] = system: C. albicans wild-type; set-up: species or system whole yeast cells; macro tube broth dilution MIC in YEPD at 30 C, visual clearness of medium; details: Candida albicans, 48 h, read-out: MIC; remark: listed apart in the source
# Protocol: as §2
# [13] = YES medium, C. albicans strain f
# [14] = YES medium, C. albicans strain g
Compound,MIC ([1]; YES medium) [µg/mL],MIC ([2]; YES medium) [µg/mL],MIC (C. albicans wild-type [3]; [13]) [µg/mL],MIC (C. albicans wild-type [3]; [14]) [µg/mL],MIC [4] [µg/mL],MIC [5] [µg/mL],MIC [6] [µg/mL],MIC [7] [µg/mL],MIC ([1]; read-out: MIC) [µg/mL],MIC ([2]; read-out: MIC) [µg/mL],MIC (C. albicans wild-type [3]; read-out: MIC) [µg/mL],MIC (C. albicans wild-type [8]) [µg/mL],MIC [9] [µg/mL],MIC [10] [µg/mL],MIC (C. albicans wild-type [11]) [µg/mL],MIC (C. albicans wild-type [12]) [µg/mL]
O=C1OCc2ccccc2/C1=C\c1ccc2c(c1)OCO2 [27E],> 200,> 200,> 200,> 200,> 200,> 200,> 200,> 200,,,,,,,,
COc1ccc(/C=C2/C(=O)OCc3ccccc32)cc1 [21E],> 200,> 200,> 200,> 200,> 200,> 200,> 200,> 200,,,,,,,,
O=C1OCc2ccccc2/C1=C/c1ccc([N+](=O)[O-])cc1 [17Z],> 200,> 200,> 200,> 200,> 200,> 200,> 200,> 200,,,,,,,,
O=C1OCc2ccccc2/C1=C\c1ccccc1Br [14E],,,,,,,,,> 200,> 200,> 200,200,25,50,200,> 200
Cc1ccc(/C=C2/C(=O)OCc3ccccc32)cc1 [19E],> 200,> 200,> 200,> 200,> 200,> 200,> 200,> 200,,,,,,,,
O=C1OCc2ccccc2/C1=C\c1ccccc1[N+](=O)[O-] [11E],,,,,,,,,> 200,> 200,> 200,> 200,200,100,> 200,> 200
